These are literature values, as cited in PMC7144264 (Journal of Enzyme Inhibition and Medicinal Chemistry, 2020).

The data set relates to COX. Further details: method as in PMID 28535469. To be noted: cited from earlier work.

On to “N-(3-chloropyridin-2-yl)−2–(4-((2-(trifluoromethyl)pyridin-4-yl)amino)phenyl)propenamide [TPA-14]”, for which the COX-inhibitory potency result is “lacked COX-inhibitory potency”.
